Legend:
pancreatic acini = assay: amylase release from pancreatic acini (Phadebas); assay type: cell-based, rat; conditions: for inhibition of amylase secretion stimulated by CCK-8 and TPA / effect on basal amylase release: Cytochalasin D 10 µM or Paclitaxel 5 µM; for inhibition of amylase secretion stimulated by CCK-8 and TPA: 4 h, CCK-8 0.3 and 100 nM; for inhibition of amylase secretion stimulated by CCK-8 and TPA / increase in amylase release: 30 min; for effect on basal amylase release: pancreatic acini (Figure 13A)
Description: Pancreatic acini preparations were obtained by collagenase digestion as previously described ([Bissonnette et al., 1984]; [Sato et al., 1989]; [Ramos-Alvarez and Jensen, 2018]). […] Isolated acini and CCK1-R/Panc-1 cells (M&M 2.2.1) were also preincubated with two SSH1 inhibitors, D3 (25 μM, 1 h) ([Li et al., 2015]) or SE (50 μM, 3 h for acini; 24 h for CCK1-R/Panc-1 cells) ([Lee et al., 2017]). After preincubation, 1 mL aliquots of dispersed acini were incubated at 37°C for 3–15 min with CCK-8 (0.3 nM or 100 nM), for 5–15 min with TPA (1 µM) or without stimulants, used as control. Cells were lysed in lysis buffer (50 mM Tris/HCl pH 7.5, 150 mM NaCl, 1% Triton X-100, 1% deoxycholate, 0.1% sodium azide, 1 mM EGTA, 0.4 mM EDTA, 0.2 mM sodium orthovanadate, 1 mM PMSF, and one protease inhibitor tablet per 10 mL). After sonication, lysates were centrifuged at 10,000×g for 15 min at 4°C and protein concentration was measured using the Bio-Rad protein assay reagent. Finally, cells were processed as below for Western blotting.
Amylase release was performed as described previously ([Sato et al., 1989]; [Ramos-Alvarez and Jensen, 2018]). Amylase activity was determined after 30 min incubation using the Phadebas reagent and was expressed as percentage of the total cellular amylase released into the extracellular medium during the incubation ([Ramos-Alvarez and Jensen, 2018]).
FIGURE 13 Effect of two cofilin inhibitors, Cytochalasin D or Paclitaxel, (A, B), or Cofilin siRNA (C), on the ability of CCK/TPA/A71378-stimulated amylase release form pancreatic acini (A) or AR42J cells (B, C). In (A, B) pancreatic acini and AR42J cells were incubated in the absence or presence of Cytochalasin D (10 µM) or Paclitaxel (5 µM) for 4 h and then incubated with no additions (control) or CCK-8 (0.03, 0.3, 1 and 100 nM), TPA (1 µM) or A71378 (0.03 and 1 nM) for 30 min and then lysed. In (B, C) AR42J cells were treated with Dexamethasone (100 nM) for 72 h, and in (C) AR42J cells were transfected with siRNA Non-targeting Control and siRNA against cofilin for 48 h, and then incubated with no addition (control) or CCK-8 (0.03 and 1 nM) and A71378 (0.03 and 1 nM) for 30 min. Amylase release, expressed as percent of cellular total amylase secreted, was determined after 30 min incubation. Means ± S.E. of at least 3 independent experiments. N.S., No significant.

[1] = test system: cofilin (pS3) in rat pancreatic acini; assay: cofilin activation (phospho-pS3 cofilin Western blot) in isolated rat pancreatic acini; assay type: cell-based; conditions: for phosphorylation levels of cofilin with CCK-8 or TPA after cofilin inhibitor / inhibition of cofilin activation stimulated by CCK-8 or TPA: Cytochalasin D 10 µM or Paclitaxel 5 µM, 3 h; for phosphorylation levels of cofilin with CCK-8 or TPA after cofilin inhibitor: CCK-8 0.3 and 100 nM; for phosphorylation levels of cofilin with CCK-8 or TPA after cofilin inhibitor / time of return of cofilin phosphorylation to original basal level: TPA 1 µM; for inhibition of cofilin activation stimulated by CCK-8 or TPA: CCK-8 0.3 or 100 nM 3 min, TPA 1 µM 5 min; for time of return of cofilin phosphorylation to original basal level: CCK-8 0.3 or 100 nM

Compound	inhibition of amylase secretion stimulated by CCK-8 and TPA (pancreatic acini; TPA 1 µM)	effect on basal amylase release (pancreatic acini)	phosphorylation levels of cofilin with CCK-8 or TPA after cofilin inhibitor [1]	inhibition of cofilin activation stimulated by CCK-8 or TPA [1]	time of return of cofilin phosphorylation to original basal level [1] [min]	other results
C=C1[C@@H](C)[C@H]2[C@H](Cc3ccccc3)NC(=O)[C@]23[C@H](OC(C)=O)/C=C/[C@@](C)(O)C(=O)[C@@H](C)C/C=C/[C@H]3[C@@H]1O [Cytochalasin D]	completely inhibited	Neither of these two cofilin inhibitors influenced basal amylase release	significant increase in phosphorylation levels of cofilin	completely inhibited	–	–
CC(=O)O[C@H]1C(=O)[C@@]2(C)[C@H]([C@H](OC(=O)c3ccccc3)[C@]3(O)C[C@H](OC(=O)[C@H](O)[C@@H](NC(=O)c4ccccc4)c4ccccc4)C(C)=C1C3(C)C)[C@]1(OC(C)=O)CO[C@@H]1C[C@@H]2O [Paclitaxel]	completely inhibited	Neither of these two cofilin inhibitors influenced basal amylase release	significant increase in phosphorylation levels of cofilin	completely inhibited	–	–
CCCCCCCCCCCCCC(=O)O[C@@H]1[C@@H](C)[C@@]2(O)[C@@H](C=C(CO)C[C@]3(O)C(=O)C(C)=C[C@@H]23)[C@H]2C(C)(C)[C@]12OC(C)=O [TPA, 12-O-tetradecanoylphobol-13-acetate]	–	–	–	–	60	increase in amylase release (pancreatic acini; TPA 1 µM): 278%
COOH-terminal octapeptide of cholecystokinin [CCK-8]	–	–	–	–	60	increase in amylase release (pancreatic acini; CCK-8 0.3 nM): 207%; effect on cofilin phosphorylation (pS3) ([1]; 1 min, CCK-8 100 nM, carbachol 1 μM, bombesin 1 nM, secretin 1 nM or VIP 1 nM, n at least 3): rapidly decreased cofilin phosphorylation; concentration with detectible decrease in cofilin phosphorylation ([1]; 3 min): 1 pM; maximal dephosphorylation (i.e., activation) of cofilin ([1]; at 1 nM, 3 min): 62%; share of CCK-8 stimulation of cofilin activation mediated by the high-affinity state CCK1 receptor ([1]; from comparison with CCK-JMV): 58%; share of CCK-8 stimulation of cofilin activation mediated by the low affinity CCK1 receptor state ([1]; from comparison with CCK-JMV): 42%; EC50 ([1]; pS3 cofilin, 3 min incubation, at least 3 experiments, mean ± SEM, read-out: half-maximal effect (EC50) for decrease of cofilin phosphorylation): 1.8 ± 0.1 pM

— article PMC10149936, “Cofilin activation in pancreatic acinar cells plays a pivotal convergent role for mediating CCK-stimulated enzyme secretion and growth” (Frontiers in Physiology, 2023)
